Assay results from patent US20160346347A1 (Oculis ehf., priority 2015, published 2016).

Experiments:
[1] = format: physicochemical
Procedure: An excess amount of drug was added to aqueous solutions containing up to 20% (w/v) cyclodextrin. The solutions were sonicated at 40-50° C. for 45-60 minutes in sealed glass vials, and then allowed to cool to room temperature (22-23° C.). Small amount of solid drug was then added to each vial, the vial resealed and allowed to equilibrate under constant agitation and protected from light for 7 days at room temperature. When the solutions had reached equilibrium, they were filtered through a 0.45 μm membrane filter and analyzed by high pressure liquid chromatography. […] The complexation efficiency (CE) was determined from the slope of phase-solubility diagrams (plots of total solubility of the drug versus total CD concentration in mol/l) where S0 is the intrinsic solubility of the drug:
The mobile phase consisted of acetonitrile, methanol and water (60:20:20), the flow rate was 1 ml/min, the column oven temperature was 80° C. and the detection wavelength was 205 nm.

[2] = in water (β-cyclodextrin: pure water at room temperature); cited from earlier work

Row | CE (complexation efficiency) [1] | Solubility in the presence of 5% (w/v) cyclodextrin [1] [µg/mL] | Solubility in the presence of 15% (w/v) cyclodextrin [1] [µg/mL] | Molecule | aqueous solubility of the cyclodextrin [2]
1 | 0.030 | – | – | OC[C@H]1O[C@@H]2O[C@H]3[C@H](O)[C@@H](O)[C@@H](O[C@H]4[C@H](O)[C@@H](O)[C@@H](O[C@H]5[C@H](O)[C@@H](O)[C@@H](O[C@H]6[C@H](O)[C@@H](O)[C@@H](O[C@H]7[C@H](O)[C@@H](O)[C@@H](O[C@H]8[C@H](O)[C@@H](O)[C@@H](O[C@H]1[C@H](O)[C@H]2O)O[C@@H]8CO)O[C@@H]7CO)O[C@@H]6CO)O[C@@H]5CO)O[C@@H]4CO)O[C@@H]3CO [β-Cyclodextrin] | 2 % (w/v)
2 | 0.0011 | 48 ± 4 | 62 ± 5 | 2-Hydroxypropyl-γ-cyclodextrin | –

More lines, now with the values behind:

Row | Molecule | CE (complexation efficiency) [1] | Solubility in the presence of 5% (w/v) cyclodextrin [1] [µg/mL] | Solubility in the presence of 15% (w/v) cyclodextrin [1] [µg/mL] | aqueous solubility of the cyclodextrin [2]
3 | Randomly methylated β-cyclodextrin | 0.053 | 130 | – | –
4 | 2-Hydroxypropyl-α-cyclodextrin | 0.031 | 84 | 460 | –
5 | OC[C@H]1O[C@@H]2O[C@H]3[C@H](O)[C@@H](O)[C@@H](O[C@H]4[C@H](O)[C@@H](O)[C@@H](O[C@H]5[C@H](O)[C@@H](O)[C@@H](O[C@H]6[C@H](O)[C@@H](O)[C@@H](O[C@H]7[C@H](O)[C@@H](O)[C@@H](O[C@H]8[C@H](O)[C@@H](O)[C@@H](O[C@H]9[C@H](O)[C@@H](O)[C@@H](O[C@H]1[C@H](O)[C@H]2O)O[C@@H]9CO)O[C@@H]8CO)O[C@@H]7CO)O[C@@H]6CO)O[C@@H]5CO)O[C@@H]4CO)O[C@@H]3CO [γ-Cyclodextrin] | 0.0049 | 62 ± 0.6 | 110 ± 1.5 | 25 % (w/v)
6 | OC[C@H]1O[C@@H]2O[C@H]3[C@H](O)[C@@H](O)[C@@H](O[C@H]4[C@H](O)[C@@H](O)[C@@H](O[C@H]5[C@H](O)[C@@H](O)[C@@H](O[C@H]6[C@H](O)[C@@H](O)[C@@H](O[C@H]7[C@H](O)[C@@H](O)[C@@H](O[C@H]1[C@H](O)[C@H]2O)O[C@@H]7CO)O[C@@H]6CO)O[C@@H]5CO)O[C@@H]4CO)O[C@@H]3CO [α-Cyclodextrin] | 0.54 | 760 ± 16 | – | 13 % (w/v)
